Source: patent US20240091267A1, “PRE-TREATMENT OF MSC WITH PPARB/DELTA AGONIST FOR TREATMENT OF ISCHEMIA-REPERFUSION INJURY” (Universite de Montpellier, priority 2020, published 2024)

Tests used:
MSC = test: Specific DNA fragmentation (Cell Death ELISA) in MSC exposed to H2O2-induced oxidative stress; format: cell-based, mouse; conditions: then 250 μM H2O2 4 h, vs naive MSC/H2O2
Experimental: FIG. 6: Increased resistance to oxidative stress and survival of PPARβ/δ-primed MSC. (A) 48 hours after the seeding step in complete medium, MSC were subjected to H2O2-induced oxidative stress during 4 hours in minimal medium with serum deprivation. Pharmacological preconditioning of MSC using PPARβ/δ agonist or antagonist was performed 24 hours before oxidative stress exposure. At the end of the protocol, cell death or relative gene expression was analyzed measuring specific DNA fragmentation by ELISA and transcript amounts by RT-qPCR. (B): Scatter plot and bars were presented for specific DNA fragmentation quantification measured in MSC treated with H2O2 at various concentrations (0, 100, 150, 250, 500 and 750 μM) for 4 h in minimal medium. Data (normalized by the control value obtained with untreated MSC) were plotted as scatter dot blots and mean±SD for each group of treatment and compared using Kruskal-Wallis (Dunn's post hoc test) and were noted **** for p<0.0001 (250 group, n=11 independent cultures vs 0 group, n=13), ** for p=0.0013 (100 group, n=10 vs 0 group, n=13), ** for p=0.0015 (350 group, n=9 vs 0 group, n=13), **for p=0.0015 (500 group, n=9 vs 0 group, n=13) and * for p=0.0332 (750 group, n=3 vs 0 group, n=13). (C): Scatter plots and bars were presented for specific DNA fragmentation quantification measured in MSC treated with 250 μM of H2O2 pretreated with GW0742 or GSK0660 at 0.1 and 1 μM 24 hours before H2O2 exposure. […]
DNA fragmentation was quantified in vitro on cell lysates with an enzyme-linked immunosorbent assay kit (Cell Death ELISA; Roche Diagnostics) designed to measure of histone-complexed DNA fragments (mono- and oligonucleosomes) out of the cytoplasm of cells after the induction of apoptosis.
To do this, MSC were submitted to an IR-simulated stress in vitro using various concentrations of H2O2 (100, 250, 350, 500 and 750 μM; see the protocol on FIG. 6A) for 4 hours. Apoptosis quantification was assessed by the mean of specific DNA fragmentation measurement for the different groups of treatment. […]

[1] = system: C57B16 mouse hearts subjected to IR injury; test: Ex vivo Langendorff ischemia-reperfusion, infarct size (Example 2, naive or pretreated MSC); set-up: species or system mouse (C57BL/6J); conditions: MSC 2,500 cells/mL (3.10^5 MSC) pretreated 24 h with GW0742 1 μM; mean±SD
[2] = system: TXNIP (Thioredoxin interacting protein); conditions: neuronal stress; neonatal hypoxic-ischemic injury in rats; cited from earlier work
[3] = system: isolated perfused hearts from C57B16 mice; test: Ex vivo Langendorff ischemia-reperfusion, infarct size, effect of preconditioning duration (Example 3); set-up: species or system mouse (C57BL/6); conditions: MSC preconditioned 24 h with 1 μM, 5,000 cells/ml, vs IR
[4] = system: infarcted myocardial tissue; test: MSC grafted in infarcted myocardial tissue, fluorescence of Dil-labeled MSC in LV sections; set-up: species or system mouse (C57BL/6J); conditions: Dil-labeled MSC pretreated 1 μM vs naive MSC
Experimental: MSCs were pre-incubated for 24 hours with either PPARβ/δ antagonists GSK3787 (0.1 and 1 μM), PPARβ/δ inverse agonist GSK0660 (0.1 and 1 μM) or PPARβ/δ agonist GW0742 (0.1, 1 and 5 μM) before to be washed with PBS and used in co-cultures experiments or injected in the myocardium. When indicated, MSCs were labeled with the fluorescent cell-tracer CM-Dil (Molecular Probes). MSC were collected and suspended in 5 mL PBS containing CM-Dil (10^7 cells/10 μg) prior to be incubated at 37° C. for 5 minutes followed by 15 minutes at 4° C., in the dark. Labeled MSCs were washed 2 times in PBS, resuspended in PBS and maintained at 4° C. prior to be injected in the myocardium.
At the end of ex vivo experiments, left ventricles (LV) were fixated in formol and embedded in paraffin. Each left ventricle was cut from the apex through the base (4 μm sections each 150 μm). Paraffin-embedded sections were deparaffinised then rehydrated through an alcohol gradient. Sections were mounted in Mowiol (Biovalley). LV Sections were scanned by the Zeiss Axio Scan Z1 slide scanner (Zeiss, Oberkochen, Germany). Scanning was done with the ×20 objective. Images were analyzed using ImageJ.

SMILES: COC(=O)c1sccc1S(=O)(=O)Nc1ccc(Nc2ccccc2)cc1OC [GSK0660]
- Specific DNA fragmentation (MSC resistance to oxidative stress) (MSC; MSC pretreated 24 h with 1 μM): impaired MSC resistance against H2O2-induced oxidative without reaching significance

SMILES: Cc1cc(SCc2sc(-c3ccc(C(F)(F)F)c(F)c3)nc2C)ccc1OCC(=O)O [GW0742]
- Infarct size [1]: same cardioprotective effect
- TXNIP inhibition [2]: inhibits TXNIP
- Decrease in infarct size [3]: 54.6%
- Percentage of fluorescence (MSC grafted in infarcted myocardium) increased by [4]: 3.5 times
- Specific DNA fragmentation (MSC resistance to oxidative stress) (MSC; MSC pretreated 24 h with 0.1 μM): did not modify the capacity of MSC to resist against oxidative stress
- Specific DNA fragmentation (MSC resistance to oxidative stress) (MSC; MSC pretreated 24 h with 1 μM): enhanced significantly MSC resistance
